Source: paper PMC5556071, “ATR inhibition facilitates targeting of leukemia dependence on convergent nucleotide biosynthetic pathways” (Nature Communications, 2017)
Several values for one entry are separate records, joined by “and”; a condition that tells them apart may be missing. Equal values may be shown once.

Legend:
CEM cells [1] = assay: Cell cycle analysis of asynchronous cells by flow cytometry (S-phase population, S-phase arrest); assay type: cell-based, human; details: asynchronous CEM, 12 h, VE-822 1 µM, DI-82 1 µM
Description: Cell cycle histograms. Cells were plated at a density of 0.5 x 10^6 cells/mL in respective media or drug treated media. Following 24 h incubation, cells were harvested and washed twice with PBS twice before staining with 0.5 ml of propidium iodide (Calbiochem, #P3566, 1 µg/mL) solution containing Ribonuclease A and 0.3% Triton-X 100. The samples were protected from light before acquisition by flow cytometry.
Cell cycle kinetics and cell cycle progression by intracellular detection of DNA-incorporated 5-ethynyl-2-deoxyuridine (EdU). CEM T-ALL cells were plated at a density of 0.5 x 10^6 cells/mL. Cells were pulsed with 10 µM EdU (Invitrogen) for 1 h, washed twice with PBS, and released in fresh media containing 5 µM deoxyribonucleosides, with and without drugs. Cells were collected at different time points following release in fresh media, and then fixed with 4% paraformaldehyde and permeabilized using saponin perm/wash reagent (Invitrogen). Cells were then stained with azide-Alexa Fluor 647 by Click reaction according to manufacturer’s protocol (Invitrogen; Click-iT EdU Flow cytometry kit, #C10634). […]

CEM cells [2] = assay: Targeted LC-MS/MS-MRM of de novo and salvage dCTP biosynthesis (nucleotide pools and newly replicated DNA); assay type: cell-based, human; design: key to Substrate utilization Glucose / Substrate utilization dC: ↓: partial decrease/inhibition; ↓↓↓: nearly complete inhibition; ↑: increase; ⟷: no change
Description: Cells were transferred into RPMI-1640 without glucose and supplemented with 10% dialyzed FBS (Gibco) containing the following labeled substrates: precursors for de novo [U-^13C6]glucose (Sigma-Aldrich, 389374) at 11 mM; precursors for purine salvage [U-^13C10,^15N5]dA (Cambridge Isotopes, CIL 3896), [^15N5]dA (Cambridge Isotopes, NLM-3895) and [^15N5]dG (Cambridge Isotopes, NLM-3899) at 5 µM or as indicated; and precursors for pyrimidine salvage: [U-^13C9,^15N3]dC (Silantes, 124603602) and [U-^13C10,^15N2]dT (Cambridge Isotopes, CNLM-3902) at 5 µM and [^15N2]orotate (Cambridge Isotopes, NLM-1048) at indicated concentrations. The cells were incubated for 12 h or as indicated before sample collection and processing.
The rates of dCTP incorporation into the DNA were determined using linear regression with procedure GLM in SAS (v. 9.4). DNA % label was transformed using a shifted log addition of 1 due to the presence of zeros in the data set. Rates were calculated using the slope of the regression line for the log transformed data and are presented in the table with the associated standard errors, along with the ratio between the rate of incorporation into DNA by the de novo and salvage pathways (Table 1).
Cell cycle synchronization. Cells were treated with a CDK4/6 inhibitor, Pablociclib or PD-0332991 (Selleckchem, S1116) for 18 h to synchronize them in the G1 phase. Subsequently, cells were washed twice with PBS containing 2% FBS (Omega Scientific) and released into fresh media. […]
Clinical Microarray Core on an Illumina HiSeq3000 using the SeqCap EZ Exome Enrichment Kit v3.0 (Roche).
Reads were mapped to UCSC hg19 (bwa-mem), deduplicaed (PicardTools), and subjected to base quality score recalibration and realignment around known indels according to the Broad Institute Genome Analysis Toolkit (GATK) Best Practices v3.0. Variants in genes associated with nucleotide biosynthesis were identified using the GATK HaplotypeCaller, and annotated with Oncotator (http://portals.broadinstitute.org/oncotator/). dNTP sample processing. 0.5 – 1 x 10^6 cells were collected into 1.5 mL microcentrifuge tubes and centrifuged (450 x g, 4 min, 4 °C). The supernatant was carefully aspirated and the cells were washed twice with 1 mL of cold PBS, followed each time by centrifugation (450 x g, 4 min 4 °C). The PBS were aspirated.
Thereafter, the pellets were treated with 10 µL of 10% trifluoroacetic acid with internal standards (1 µM […]
s, and incubated on ice for 10 min. 40 µL of 500 mM ammonium acetate, pH = 9.3, with the same internal standard (1 µM [15N3]dCMP and [15N3]dCTP) was then added and the samples were vigorously vortexed again for 30 s. The samples were centrifuged (14,000 x g, 10 min, 4 °C) to remove cell debris. The supernatants (~ 40 µL) were transferred into HPLC injector vials. Stock solutions (10 mM) of rCTP, rCDP, dCMP, dCDP, and dCTP (Sigma Aldrich) were prepared individually in water, and stored at –20 °C before use to generate calibration standards. Calibration standards were prepared and mixed together in water with internal standards (1 µM [15N3]dCMP and [15N3]dCTP) to make working stock concentrations in 100 nM – 100 µM range.
Calibration standards were diluted 10-fold into the same nucleotide extraction solution of 10% TFA/500 mM ammonium acetate (1:4, v/v) with internal standards (1 µM [15N3]dCMP and [15N3]dCTP) to give a final concentration in 10 nM – 10 µM. Nucleotide and calibration samples were processed together to minimize […]
DNA sample processing. Genomic DNA from 0.5 – 1 x 10^4 cells was extracted using the Quick-gDNA MiniPrep kit (Zymo Research, D3021) and hydrolyzed to nucleosides using the DNA Degradase Plus kit (Zymo Research, E2021), following manufacturer-supplied instructions. In the final step of DNA extraction, 50 µL of […]
water was used to elute the DNA into 1.5 mL microcentrifuge tubes. A nuclease solution (5 µL; 10X buffer/DNA Degradase Plus™/water, 2.5/1/1.5, v/v/v) was added to 20 µL of the eluted genomic DNA in an HPLC injector […]
vial. […]

[3] = CEM 12 h, 1 uM VE-822, 1 uM DI-82, 500 nM 3-AP, #1-#3
[4] = CEM after release from G1 arrest

Structure (SMILES): CNCc1ccc(-c2cc(-c3nc(-c4ccc(S(=O)(=O)C(C)C)cc4)cnc3N)on2)cc1 [VE-822]
- percentage of cell population in S-phase (CEM cells [1]; + dNTP (10 µM)): 37%
- percentage of cell population in S-phase (CEM cells [1]; – dNTP): 42%
- reduction in overall DNA labeling compared to untreated cells (CEM cells [2]; 12 h time point after release from G1 arrest): 30%
- % sum abundance, de novo DNA-C, mass increase in nucleobase +0, in deoxyribose +3 (CEM cells [2]; [3]): 0.14% and 0.15% and 0.16%
- % sum abundance, de novo DNA-C, mass increase in nucleobase +0, in deoxyribose +4 (CEM cells [2]; [3]): 0.43% and 0.45% and 0.46%
- % sum abundance, de novo DNA-C, mass increase in nucleobase +0, in deoxyribose +5 (CEM cells [2]; [3]): 7.38% and 7.69% and 7.03%
- % sum abundance, de novo DNA-C, mass increase in nucleobase +1, in deoxyribose +3 (CEM cells [2]; [3]): 0.00%
- % sum abundance, de novo DNA-C, mass increase in nucleobase +1, in deoxyribose +4 (CEM cells [2]; [3]): 0.06% and 0.0569% and 0.066%
- % sum abundance, de novo DNA-C, mass increase in nucleobase +1, in deoxyribose +5 (CEM cells [2]; [3]): 0.95% and 0.96% and 0.91%
- % sum abundance, de novo DNA-C, mass increase in nucleobase +2, in deoxyribose +4 (CEM cells [2]; [3]): 0.0654% and 0.0348% and 0.0476%
- % sum abundance, de novo DNA-C, mass increase in nucleobase +2, in deoxyribose +5 (CEM cells [2]; [3]): 0.64% and 0.67% and 0.62%
- % sum abundance, de novo DNA-C, mass increase in nucleobase +3, in deoxyribose +4 (CEM cells [2]; [3]): 0.00%
- % sum abundance, de novo DNA-C, mass increase in nucleobase +3, in deoxyribose +5 (CEM cells [2]; [3]): 0.16% and 0.17% and 0.14%
- % sum abundance, de novo DNA-C, mass increase in nucleobase +4, in deoxyribose +4 (CEM cells [2]; [3]): 0.00%
- % sum abundance, de novo DNA-C, mass increase in nucleobase +4, in deoxyribose +5 (CEM cells [2]; [3]): 0.00%
- % sum abundance, salvage DNA-C, mass increase in nucleobase +5, in deoxyribose +0 (CEM cells [2]; [3]): 0.00%
- % sum abundance, salvage DNA-C, mass increase in nucleobase +5, in deoxyribose +4 (CEM cells [2]; [3]): 0.00%
- % sum abundance, salvage DNA-C, mass increase in nucleobase +5, in deoxyribose +5 (CEM cells [2]; [3]): 0.00%
- % sum abundance, salvage DNA-C, mass increase in nucleobase +6, in deoxyribose +0 (CEM cells [2]; [3]): 0.00%
- % sum abundance, salvage DNA-C, mass increase in nucleobase +6, in deoxyribose +4 (CEM cells [2]; [3]): 0.00%
- % sum abundance, salvage DNA-C, mass increase in nucleobase +6, in deoxyribose +5 (CEM cells [2]; [3]): 0.09%
- % sum abundance, salvage DNA-C, mass increase in nucleobase +7, in deoxyribose +0 (CEM cells [2]; [3]): 0.00%
- % sum abundance, salvage DNA-C, mass increase in nucleobase +7, in deoxyribose +4 (CEM cells [2]; [3]): 0.06% and 0.07%
- % sum abundance, salvage DNA-C, mass increase in nucleobase +7, in deoxyribose +5 (CEM cells [2]; [3]): 1.08% and 1.19% and 1.11%
- % sum abundance, unlabeled DNA-C, mass increase in nucleobase +0, in deoxyribose +0 (CEM cells [2]; [3]): 78.84% and 78.52% and 79.31%
- % sum abundance, unlabeled DNA-C, mass increase in nucleobase +0, in deoxyribose +1 (CEM cells [2]; [3]): 4.53% and 4.48% and 4.46%
- % sum abundance, unlabeled DNA-C, mass increase in nucleobase +0, in deoxyribose +2 (CEM cells [2]; [3]): 0.68% and 0.72%
- % sum abundance, unlabeled DNA-C, mass increase in nucleobase +1, in deoxyribose +0 (CEM cells [2]; [3]): 4.47% and 4.26% and 4.33%
- % sum abundance, unlabeled DNA-C, mass increase in nucleobase +1, in deoxyribose +1 (CEM cells [2]; [3]): 0.21% and 0.22% and 0.24%
- % sum abundance, unlabeled DNA-C, mass increase in nucleobase +1, in deoxyribose +2 (CEM cells [2]; [3]): 0.00%
- % sum abundance, unlabeled DNA-C, mass increase in nucleobase +2, in deoxyribose +0 (CEM cells [2]; [3]): 0.24% and 0.27% and 0.28%
- % sum abundance, unlabeled DNA-C, mass increase in nucleobase +2, in deoxyribose +1 (CEM cells [2]; [3]): 0.00%
- % sum abundance, unlabeled DNA-C, mass increase in nucleobase +2, in deoxyribose +2 (CEM cells [2]; [3]): 0.00%
- % sum abundance, unlabeled DNA-C, mass increase in nucleobase +3, in deoxyribose +0 (CEM cells [2]; [3]): 0.00%
- % sum abundance, unlabeled DNA-C, mass increase in nucleobase +3, in deoxyribose +1 (CEM cells [2]; [3]): 0.00%
- % sum abundance, unlabeled DNA-C, mass increase in nucleobase +4, in deoxyribose +0 (CEM cells [2]; [3]): 0.00%
- De novo: rate of dCTP incorporation into newly replicated DNA (slope ± standard error of regression line) (CEM cells [2]; [4]): 0.17 ± 0.01 arbitrary unit
- Ratio (salvage/de novo) (CEM cells [2]; [4]): 0.85
- Salvage: rate of dCTP incorporation into newly replicated DNA (slope ± standard error of regression line) (CEM cells [2]; [4]): 0.14 ± 0.01 arbitrary unit
- free dCTP levels or their biosynthetic origins (CEM cells [2]; after release from G1 arrest): did not alter
- decrease of [13C6]glucose labeling of the rCDP pool (CEM cells [2]; asynchronous CEM, 12 h): 40%
- reduction of dCK activity (contribution of labeled [13C9,15N3]dC to intracellular dCMP) (CEM cells [2]; asynchronous CEM, 12 h): ~ 33%
- Substrate utilization Glucose (CEM cells [2]; summary Fig. 2g, CEM cells): ↓
- Substrate utilization dC (CEM cells [2]; summary Fig. 2g, CEM cells): ↓
